Source: publication PMC5382913, “Interactions of the periplasmic binding protein CeuE with Fe(III) n-LICAM^4− siderophore analogues of varied linker length” (Scientific Reports, 2017)

Tests used:
CeuE mutant H227A [1] = target: T1, CeuE mutant H227A (Campylobacter jejuni, UniProt Q0P8Q4, H247A); assay: Intrinsic fluorescence quenching titration, CeuE mutant H227A; settings: 240 nM protein in 40 mM Tris-HCl pH 7.5, 150 mM NaCl; 1:1 binding model; triplicate
T1 sequence (Q0P8Q4 44-330 H247A): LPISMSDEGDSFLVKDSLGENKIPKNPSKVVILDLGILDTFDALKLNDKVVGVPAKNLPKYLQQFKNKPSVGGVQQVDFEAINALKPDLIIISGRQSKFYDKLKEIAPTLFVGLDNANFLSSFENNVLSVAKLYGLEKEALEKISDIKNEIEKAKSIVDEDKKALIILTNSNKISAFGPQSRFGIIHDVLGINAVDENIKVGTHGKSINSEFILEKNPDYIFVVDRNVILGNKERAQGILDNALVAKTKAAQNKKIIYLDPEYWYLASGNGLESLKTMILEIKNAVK
From the text: (§1) The affinities of CeuE for the four Fe-n-Lic complexes were quantified using intrinsic fluorescence quenching, Table 1, with measurements carried out in triplicate. The data were fitted to a 1:1 binding model and analyzed by non-linear regression. […] An attempt to determine the Kd value of Fe-5-Lic by using a more dilute protein solution was unsuccessful because of the inherent decrease in emission intensity reaching the detection limit of the fluorimeter.
(§2) The binding studies with wild type CeuE were followed by titrations to determine the ligand affinity of all five mutants. Fe-5-Lic was chosen because of its strong binding to wild type CeuE and because its linker length matches that of natural catecholate siderophores. Mutation of the Fe(III)-coordinating tyrosine led to a drastic drop in binding affinity in both the single (Y228F) and the double mutants (H227L/Y288F and H227A/Y288F), with Kd values above 1 μM. In contrast, the effect of mutating the histidine was less pronounced. […] However, there is an additional entropic contribution to consider.
(§3) Subsequently, titrations were carried out with Fe-4-Lic, Fe-6-Lic and Fe-8-Lic to identify trends in the affinity for mutants H227L and H227A (Fig. 6(b) and (c)) (Table 1). The resulting Kd values show trends similar to that observed for wild type, but with systematically weaker binding.
(§4) Fluorescence quenching studies with CeuE were carried out on a Hitachi F-4500 fluorescence spectrophotometer as previously reported.
(§5) A 240 nM solution of CeuE in 40 mM Tris-HCl pH 7.5, 150 mM NaCl was prepared and the concentration verified by both the Bradford method and UV-vis absorbance at 280 nm, using the molar absorbance coefficient predicted by ProtParam (15930 mol^−1 dm^3 cm^−1)[43]. The CeuE solution (2 mL) was titrated stepwise with 16 aliquots of a 12 μM Fe-n-Lic solution resulting in a concentration range of Fe-n-Lic of 0 to 1.19 μM. The observed emission intensity was corrected for photomultiplier tube response and buffer subtracted, then integrated between 310 and 410 nm. The data were normalized and analyzed by nonlinear regression using a one-site binding model in DynaFit[26]. Each system was analyzed in triplicate and the average dissociation constants were calculated as reported previously.

WT CeuE = target: T2, WT CeuE (Campylobacter jejuni, UniProt Q0P8Q4); assay: Intrinsic fluorescence quenching titration, wild type CeuE; settings: 240 nM protein in 40 mM Tris-HCl pH 7.5, 150 mM NaCl; 1:1 binding model; triplicate
T2 sequence (Q0P8Q4 44-330): T1 sequence (Q0P8Q4 44-330 H247A)
From the text: as §1, §4, §5

CeuE mutant H227L [2] = target: T3, CeuE mutant H227L (Campylobacter jejuni, UniProt Q0P8Q4, H247L); assay: Intrinsic fluorescence quenching titration, CeuE mutant H227L; settings: 240 nM protein in 40 mM Tris-HCl pH 7.5, 150 mM NaCl; 1:1 binding model; triplicate
T3 sequence (Q0P8Q4 44-330 H247L): T1 sequence (Q0P8Q4 44-330 H247A)
From the text: as §1, §2, §3, §4, §5

CeuE mutant H227L [3] = target: T3, CeuE mutant H227L; assay: Circular dichroism of LMCT band, mutant H227L; format: binding; settings: 50 μM in 100 mM TRIS buffer, 150 mM NaCl, 0.5% DMSO, pH 7.5
From the text: (§6) To confirm that the preference for the Λ-configuration is retained in solution, circular dichroism (CD) spectroscopy was used to probe the ligand-to-metal charge transfer (LMCT) band (Fig. 8(a)). The minimum and maximum of the region of the LMCT band at approximately 408 nm and 595 nm, respectively, are indicative of the Λ-configuration[29], with no CD signal observed in the absence of either the protein or ligand, confirming that the protein selectively binds the Λ-configuration.
(§7) The Y228F mutants gave no signal, confirming a lack of Λ-configuration induction, which may indicate a lack of ligand binding. […] Complexes of H227L and H227A were then prepared with all four Fe-n-Lic complexes.
(§8) Solutions of wild type CeuE and mutant proteins were diluted to 5 × 10^−5 M in buffer containing 150 mM NaCl and 0.11 M Tris, adjusted to pH 7.5. […]
(§9) Spectra were recorded using a solution containing 880 μL 0.11 M Tris pH 7.5, 150 mM NaCl buffer, 100 μL (Fe(III)-n-Lic (n = 4, 5, 6, 8) NTA solution and 20 μL to 5 × 10^−5 M CeuE, resulting in a 50:1 excess of ligand to ensure full binding.
(§10) The spectra were recorded from 300–700 nm and buffer subtracted (data pitch […], scan speed 100 nm min^−1, response 2 seconds, bandwidth 2 nm, path length 1 cm). The spectra were recorded 5 times and averaged.

CeuE Y228F mutants = assay: Circular dichroism of LMCT band, Y228F mutants; format: binding, Campylobacter jejuni; settings: 50 μM in 100 mM TRIS buffer, 150 mM NaCl, 0.5% DMSO, pH 7.5
From the text: as §6, §7, §8, §9, §10

CeuE single mutant Y228F = target: T4, CeuE single mutant Y228F (Campylobacter jejuni, UniProt Q0P8Q4, Y308F); assay: Intrinsic fluorescence quenching titration, CeuE single mutant Y228F; format: binding
T4 sequence (Q0P8Q4 44-330 Y308F): T1 sequence (Q0P8Q4 44-330 H247A)
Experimental: as §2, §4
as §5, with “The observed emission intensity was corrected for photomultiplier tube response and buffer subtracted, then integrated between 310 and 410 nm.” left out

CeuE mutant H227A [4] = target: T1, CeuE mutant H227A; assay: Circular dichroism of LMCT band, mutant H227A; format: binding; settings: 50 μM in 100 mM TRIS buffer, 150 mM NaCl, 0.5% DMSO, pH 7.5
From the text: as §6, §7, §8, §9, §10

[5] = target: T5, CeuE double mutant H227A/Y288F (Campylobacter jejuni, UniProt Q0P8Q4, H247A/Y308F); assay: Intrinsic fluorescence quenching titration, CeuE double mutant H227A/Y288F; format: binding
T5 sequence (Q0P8Q4 44-330 H247A/Y308F): T1 sequence (Q0P8Q4 44-330 H247A)
Experimental: as §2, §4
as §5, with “The observed emission intensity was corrected for photomultiplier tube response and buffer subtracted, then integrated between 310 and 410 nm.” left out

[6] = target: T6, CeuE double mutant H227L/Y288F (Campylobacter jejuni, UniProt Q0P8Q4, H247L/Y308F); assay: Intrinsic fluorescence quenching titration, CeuE double mutant H227L/Y288F; format: binding
T6 sequence (Q0P8Q4 44-330 H247L/Y308F): T1 sequence (Q0P8Q4 44-330 H247A)
Experimental: as §2, §4
as §5, with “The observed emission intensity was corrected for photomultiplier tube response and buffer subtracted, then integrated between 310 and 410 nm.” left out

Row | SMILES | Kd (CeuE mutant H227A [1]) [nM] | Kd (WT CeuE) [nM] | Kd (CeuE mutant H227L [2]) [nM] | CD signal of Λ-configuration (LMCT band), mutant H227L (CeuE mutant H227L [3]) | CD signal of Λ-configuration (LMCT band), Y228F mutants (CeuE Y228F mutants) | Kd (CeuE single mutant Y228F) [nM] | CD signal of Λ-configuration (LMCT band), mutant H227A (CeuE mutant H227A [4]) | Kd [5] [nM] | Kd [6] [nM]
1 | O=C(NCCCCNC(=O)c1cccc(O)c1O)c1cccc(O)c1O [Fe-4-Lic] | 131 ± 28 | 21 ± 6 | 90 ± 30 |  |  |  |  |  | 
2 | O=C(NCCCCCNC(=O)c1cccc(O)c1O)c1cccc(O)c1O [Fe-5-Lic] | 35 ± 14 | < 10 | 22 ± 10 | Λ-configuration signal was observed | no signal | > 1000 | Λ-configuration signal was observed | > 1000 | > 1000
3 | O=C(NCCCCCCNC(=O)c1cccc(O)c1O)c1cccc(O)c1O [Fe-6-Lic] | 41 ± 7 | 33 ± 8 | 65 ± 21 |  |  |  |  |  | 
4 | O=C(NCCCCCCCCNC(=O)c1cccc(O)c1O)c1cccc(O)c1O [Fe-8-Lic] | 125 ± 36 | 58 ± 8 | 112 ± 21 |  |  |  |  |  | 
